# Patent US8859543B2, “Imidazo[1,2-a]pyrazine derivatives and their use for the prevention or treatment of neurological, psychiatric and metabolic disorders and diseases” (Janssen Pharmaceutica NV, priority 2010, dated 2014)
# Where two headings read alike, the source gives them in different places.
# How the values were obtained:
# [1] = test system: apomorphine-induced stereotypy; assay: Apomorphine-induced stereotypy in rats (APO); type: in vivo; conditions: Rattus norvegicus
# Experimental: Apomorphine-Induced Stereotypy in Rats (APO)
# Apomorphine (1.0 mg/kg, i.v.)-induced stereotypy (compulsive sniffing, licking, chewing) was scored every 5 min. over the first hour after injection of apomorphine, following a 1 hour interval pre-treatment with the test compound. The score system was: (3) pronounced, (2) moderate, (1) slight, and (O) absent.
# PDE2A = PDE2A (Homo sapiens, UniProt O00408); assay: In vitro PDE selectivity assay, PDE2A; type: biochemical
# Experimental: (§1) Rat recombinant PDE10A (rPDE10A2) was expressed in Sf9 cells using a recombinant rPDE10A baculovirus construct. Cells were harvested after 48 h of infection and the rPDE10A protein was purified by metal chelate chromatography on Ni-sepharose 6FF. […] The reaction was incubated for 60 min. at RT. […] After sedimentation of the beads during 30 min. the radioactivity was measured in a Perkin Elmer Topcount scintillation counter and results were expressed as cpm. For blank values the enzyme was omitted from the reaction and replaced by incubation buffer. […] The same assay principle is applied for the measurement of the affinity of the compound for other members of the PDE family with appropriate modifications in incubation buffer, substrate concentration, incubation time and stop solution.
# [2] = target: T1, Rat recombinant PDE10A (rPDE10A2) (Rattus norvegicus, UniProt Q9QYJ6); assay: In vitro assay PDE10A (SPA, 3H-cAMP); type: biochemical
# T1 construct: made in house; host or cells: Sf9 insect cells, baculovirus
# T1 sequence (Q9QYJ6 1-794): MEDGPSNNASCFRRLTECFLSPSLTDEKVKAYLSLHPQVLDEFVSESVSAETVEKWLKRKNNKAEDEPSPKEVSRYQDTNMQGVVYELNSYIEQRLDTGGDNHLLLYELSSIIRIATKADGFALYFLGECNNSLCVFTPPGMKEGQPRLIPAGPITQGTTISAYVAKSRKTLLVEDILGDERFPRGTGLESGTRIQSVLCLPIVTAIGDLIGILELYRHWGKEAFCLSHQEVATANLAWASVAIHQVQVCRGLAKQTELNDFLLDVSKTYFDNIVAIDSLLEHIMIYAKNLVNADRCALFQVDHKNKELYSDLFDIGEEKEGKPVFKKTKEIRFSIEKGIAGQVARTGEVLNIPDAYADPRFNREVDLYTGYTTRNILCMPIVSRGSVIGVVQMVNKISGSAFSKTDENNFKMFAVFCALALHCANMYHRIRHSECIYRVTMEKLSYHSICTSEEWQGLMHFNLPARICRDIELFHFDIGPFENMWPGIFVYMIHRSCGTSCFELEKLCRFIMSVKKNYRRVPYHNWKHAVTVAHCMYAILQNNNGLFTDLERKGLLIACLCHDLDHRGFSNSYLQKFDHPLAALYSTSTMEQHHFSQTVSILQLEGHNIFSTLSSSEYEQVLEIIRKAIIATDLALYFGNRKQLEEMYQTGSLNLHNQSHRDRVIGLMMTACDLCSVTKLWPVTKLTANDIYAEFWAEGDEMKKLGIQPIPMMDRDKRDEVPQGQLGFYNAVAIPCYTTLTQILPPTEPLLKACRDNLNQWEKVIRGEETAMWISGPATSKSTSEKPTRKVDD
# In short: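 Purified Sf9-expressed rat PDE10A2 incubated 60 min at RT with 60 nM cAMP plus 0.008 μCi 3H-cAMP in 50 mM Tris pH 7.8, 8.3 mM MgCl2, 1.7 mM EGTA, 1% DMSO final. Product quantified by scintillation proximity counting against no-enzyme blanks and DMSO controls.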
# [3] = test system: PCP-induced hyperlocomotion; assay: PCP-induced hyperlocomotion in rats (PCP); type: in vivo; conditions: Rattus norvegicus
# [4] = test system: conditioned avoidance response; assay: Conditioned avoidance response (CAR) test; type: in vivo; conditions: Rattus norvegicus
# Excerpt: Conditioned Avoidance Response (CAR) Test
# The apparatus consisted of an inner box surrounded by an outer box. The inner box was composed of four walls of transparent, synthetic material (length×width×height: 30×30×30 cm), an open top, and a grid floor made of 15 pairs of iron bars (2 mm diameter; 6 mm inter-bar distance). Odd and even bars were connected with a source of alternative current (1.0 mA; Coulbourn Instruments Solid State Shocker/Distributor), which could be interrupted by a switch. The outer box was composed of the same material (length×width×height: 40×40×36 cm), also with an open top, with a distance of 5 cm between the inner and outer box on all sides. To decrease the amount of environmental stimuli, three walls of the outer box were made non-transparent. The front wall was left transparent to allow the necessary inspection of the animal during the test. The upper edge of the outer and inner box served as a target for the rats on which to jump with fore- and hind-paws, respectively.
# From their arrival in the laboratory on the experimental day, male Wiga Wistar rats (230±30 g) were housed in individual cages provided with bedding material.
# The rats were tested 3 times, i.e. at 60, 90 and 120 min after the injection of test compound or solvent. Latency to avoidance was recorded. The median avoidance response obtained over the three experimental sessions for each rat were used for further calculations.
# PDE10 = target: T2, PDE10 (Rattus norvegicus, UniProt Q9QYJ6); assay: PDE10 occupancy ([3H]-MP-10, striatum); type: in vivo; conditions: administered s.c.; for ED50: rat, sc, occupancy, read-out: Occ. ED50
# T2 construct: from tissue; host or cells: rat brain sections, striatum (ex vivo autoradiography after in vivo dosing)
# T2 sequence (Q9QYJ6 1-794): T1 sequence (Q9QYJ6 1-794)
# Experimental: Dose-response or single dose experiments were performed to measure PDE10 occupancy 1 hour after subcutaneous (s.c.) or oral (p.o.) administration. Male Wistar rats (200 g) were treated by s.c. or p.o. administration of various PDE10 inhibitors. The PDE10 radioligand [^3H]-MP-10 (10 μCi/animal) was injected intravenously (i.v.) 30 minutes before sacrifice. Brains were immediately removed from the skull and rapidly frozen. Twenty μm-thick brain sections were cut using a cryostat-microtome, thaw-mounted on microscope slides and loaded in a β-imager to quantify PDE10 occupancy in the striatum.
# PDE11A = PDE11A (Homo sapiens, UniProt Q9HCR9); assay: In vitro PDE selectivity assay, PDE11A; type: biochemical; conditions: Table 4a in vitro selectivity; read-out: IC50 PDE type 11A
# Experimental: as §1
# PDE1B = PDE1B (Homo sapiens, UniProt Q01064); assay: In vitro PDE selectivity assay, PDE1B; type: biochemical; conditions: Table 4a in vitro selectivity; read-out: IC50 PDE type 1B
# Experimental: as §1
# PDE4D = PDE4D (Homo sapiens, UniProt Q08499); assay: In vitro PDE selectivity assay, PDE4D; type: biochemical; conditions: Table 4a in vitro selectivity; read-out: IC50 PDE type 4D
# Experimental: as §1
# PDE5A = PDE5A (Homo sapiens, UniProt O76074); assay: In vitro PDE selectivity assay, PDE5A; type: biochemical; conditions: Table 4a in vitro selectivity; read-out: IC50 PDE type 5A
# Experimental: as §1
# PDE9A = PDE9A (Homo sapiens, UniProt O76083); assay: In vitro PDE selectivity assay, PDE9A; type: biochemical
# Experimental: as §1
# PDE3A = PDE3A (Homo sapiens, UniProt Q14432); assay: In vitro PDE selectivity assay, PDE3A; type: biochemical; conditions: Table 4a in vitro selectivity; read-out: IC50 PDE type 3A
# Experimental: as §1
# PDE7A = PDE7A (Homo sapiens, UniProt Q13946); assay: In vitro PDE selectivity assay, PDE7A; type: biochemical; conditions: Table 4a in vitro selectivity; read-out: IC50 PDE type 7A
# Experimental: as §1
# [5] = test system: scopolamine induced memory deficit; assay: Object recognition test (scopolamine induced memory deficit); type: in vivo, rat; conditions: rats
# Experimental: They were kept under a 12/12-hour light/dark cycle (lights on from 19.00 to 7.00 h) and had free access to food and water. […] A radio, which was playing softly, provided background noise in the room. […] The apparatus consisted of a circular arena, 83 cm in diameter. […] The light intensity was equal in the different parts of the apparatus, as fluorescent red tubes provided a constant illumination of about 20 lux on the floor of the apparatus. […] Each object was available in triplicate. Four different sets of objects were used. A testing session consisted of two trials. […] During the first trial (T1) the apparatus contained two identical objects (samples). Rats were placed in the apparatus facing the wall at the middle of the front (transparent) segment. After the first exploration period the rat was put back in its home cage. […] Exploration was defined as follows: directing the nose to the object at a distance of no more than 2 cm and/or touching the object with the nose. Sitting on the object was not considered as exploratory behavior.
# [6] = pIC50 corresponds to the -log IC50 expressed in mol/L, read-out: PDE10A2 pIC50 (converted)
# Chain of PDE2A (O00408 whole entry, species assumed): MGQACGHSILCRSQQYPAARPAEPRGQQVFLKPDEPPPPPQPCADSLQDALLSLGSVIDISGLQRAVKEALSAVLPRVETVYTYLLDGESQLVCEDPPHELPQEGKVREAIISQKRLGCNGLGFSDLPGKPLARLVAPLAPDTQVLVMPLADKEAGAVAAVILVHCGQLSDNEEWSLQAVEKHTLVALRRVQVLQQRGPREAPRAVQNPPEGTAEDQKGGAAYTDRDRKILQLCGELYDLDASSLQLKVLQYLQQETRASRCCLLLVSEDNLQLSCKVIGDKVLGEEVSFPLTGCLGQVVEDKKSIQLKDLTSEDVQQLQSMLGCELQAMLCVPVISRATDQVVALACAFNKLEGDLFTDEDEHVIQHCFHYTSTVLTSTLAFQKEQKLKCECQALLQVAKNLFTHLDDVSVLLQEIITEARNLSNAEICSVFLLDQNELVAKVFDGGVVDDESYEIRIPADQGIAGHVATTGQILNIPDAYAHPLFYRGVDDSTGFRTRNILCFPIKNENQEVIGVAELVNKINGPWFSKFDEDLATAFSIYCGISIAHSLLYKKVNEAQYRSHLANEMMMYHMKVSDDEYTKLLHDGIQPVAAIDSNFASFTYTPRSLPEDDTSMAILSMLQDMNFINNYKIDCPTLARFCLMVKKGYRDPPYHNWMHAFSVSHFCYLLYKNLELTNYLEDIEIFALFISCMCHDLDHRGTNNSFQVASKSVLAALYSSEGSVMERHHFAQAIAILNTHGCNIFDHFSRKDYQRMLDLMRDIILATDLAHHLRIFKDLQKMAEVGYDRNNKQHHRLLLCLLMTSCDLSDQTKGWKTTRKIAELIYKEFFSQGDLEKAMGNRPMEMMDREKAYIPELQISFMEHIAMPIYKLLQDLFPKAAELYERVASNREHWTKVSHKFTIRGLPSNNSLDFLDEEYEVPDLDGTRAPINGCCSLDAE
# Chain of PDE9A (O76083 whole entry): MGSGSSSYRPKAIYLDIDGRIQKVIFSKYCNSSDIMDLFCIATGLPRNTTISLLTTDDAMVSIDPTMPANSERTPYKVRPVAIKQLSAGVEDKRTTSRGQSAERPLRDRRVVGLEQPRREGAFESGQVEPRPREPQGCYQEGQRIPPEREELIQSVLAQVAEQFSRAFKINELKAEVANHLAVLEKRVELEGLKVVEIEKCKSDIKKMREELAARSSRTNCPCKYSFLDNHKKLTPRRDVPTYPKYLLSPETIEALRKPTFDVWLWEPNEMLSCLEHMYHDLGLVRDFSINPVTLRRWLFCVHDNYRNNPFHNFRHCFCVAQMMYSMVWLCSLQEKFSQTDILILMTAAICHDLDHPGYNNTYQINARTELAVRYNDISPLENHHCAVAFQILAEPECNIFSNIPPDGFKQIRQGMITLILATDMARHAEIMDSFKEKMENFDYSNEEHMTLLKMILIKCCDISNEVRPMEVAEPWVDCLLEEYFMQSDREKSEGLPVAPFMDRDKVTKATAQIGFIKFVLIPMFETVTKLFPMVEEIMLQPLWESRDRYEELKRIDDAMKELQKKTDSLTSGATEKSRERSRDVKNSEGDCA
# Chain of PDE1B (Q01064 whole entry): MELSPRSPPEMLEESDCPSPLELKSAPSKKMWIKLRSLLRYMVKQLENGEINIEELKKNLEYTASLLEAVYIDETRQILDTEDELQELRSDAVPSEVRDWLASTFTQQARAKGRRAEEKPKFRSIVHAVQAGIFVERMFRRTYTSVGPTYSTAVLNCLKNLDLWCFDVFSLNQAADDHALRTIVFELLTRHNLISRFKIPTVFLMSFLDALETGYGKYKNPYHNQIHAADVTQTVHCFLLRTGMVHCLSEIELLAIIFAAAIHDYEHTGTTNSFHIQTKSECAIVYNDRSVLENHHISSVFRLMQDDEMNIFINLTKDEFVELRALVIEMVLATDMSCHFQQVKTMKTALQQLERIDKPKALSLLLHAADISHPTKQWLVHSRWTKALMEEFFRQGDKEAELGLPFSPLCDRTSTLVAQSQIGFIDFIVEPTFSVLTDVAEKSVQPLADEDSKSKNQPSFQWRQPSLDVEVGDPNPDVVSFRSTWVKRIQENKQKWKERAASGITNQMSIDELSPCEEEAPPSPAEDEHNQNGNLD
# Chain of PDE11A (Q9HCR9 whole entry, species assumed): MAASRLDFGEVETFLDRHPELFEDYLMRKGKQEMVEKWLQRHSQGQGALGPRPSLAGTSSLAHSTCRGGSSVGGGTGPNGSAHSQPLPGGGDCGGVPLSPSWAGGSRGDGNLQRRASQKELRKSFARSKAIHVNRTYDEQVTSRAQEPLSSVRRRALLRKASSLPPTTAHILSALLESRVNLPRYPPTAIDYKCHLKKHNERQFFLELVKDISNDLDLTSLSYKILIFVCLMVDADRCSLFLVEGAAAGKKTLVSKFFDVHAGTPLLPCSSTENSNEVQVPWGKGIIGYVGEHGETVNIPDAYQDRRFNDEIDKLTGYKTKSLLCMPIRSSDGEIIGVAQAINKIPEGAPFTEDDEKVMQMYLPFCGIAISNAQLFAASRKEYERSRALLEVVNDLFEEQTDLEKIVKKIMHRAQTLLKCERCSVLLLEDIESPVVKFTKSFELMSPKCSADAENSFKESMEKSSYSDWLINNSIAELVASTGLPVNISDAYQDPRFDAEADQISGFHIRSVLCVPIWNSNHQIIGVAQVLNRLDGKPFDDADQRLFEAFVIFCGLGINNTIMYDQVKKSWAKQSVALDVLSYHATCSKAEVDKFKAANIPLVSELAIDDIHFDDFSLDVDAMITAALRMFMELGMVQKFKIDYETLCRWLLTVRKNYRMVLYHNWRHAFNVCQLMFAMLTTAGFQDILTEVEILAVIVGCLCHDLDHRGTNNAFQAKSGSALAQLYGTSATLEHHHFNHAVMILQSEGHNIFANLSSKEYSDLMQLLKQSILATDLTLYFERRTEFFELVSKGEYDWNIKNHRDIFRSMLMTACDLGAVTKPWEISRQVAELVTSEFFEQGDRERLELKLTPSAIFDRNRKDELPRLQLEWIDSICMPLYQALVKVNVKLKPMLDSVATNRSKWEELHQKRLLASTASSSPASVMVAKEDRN
# Chain of PDE3A (Q14432 whole entry): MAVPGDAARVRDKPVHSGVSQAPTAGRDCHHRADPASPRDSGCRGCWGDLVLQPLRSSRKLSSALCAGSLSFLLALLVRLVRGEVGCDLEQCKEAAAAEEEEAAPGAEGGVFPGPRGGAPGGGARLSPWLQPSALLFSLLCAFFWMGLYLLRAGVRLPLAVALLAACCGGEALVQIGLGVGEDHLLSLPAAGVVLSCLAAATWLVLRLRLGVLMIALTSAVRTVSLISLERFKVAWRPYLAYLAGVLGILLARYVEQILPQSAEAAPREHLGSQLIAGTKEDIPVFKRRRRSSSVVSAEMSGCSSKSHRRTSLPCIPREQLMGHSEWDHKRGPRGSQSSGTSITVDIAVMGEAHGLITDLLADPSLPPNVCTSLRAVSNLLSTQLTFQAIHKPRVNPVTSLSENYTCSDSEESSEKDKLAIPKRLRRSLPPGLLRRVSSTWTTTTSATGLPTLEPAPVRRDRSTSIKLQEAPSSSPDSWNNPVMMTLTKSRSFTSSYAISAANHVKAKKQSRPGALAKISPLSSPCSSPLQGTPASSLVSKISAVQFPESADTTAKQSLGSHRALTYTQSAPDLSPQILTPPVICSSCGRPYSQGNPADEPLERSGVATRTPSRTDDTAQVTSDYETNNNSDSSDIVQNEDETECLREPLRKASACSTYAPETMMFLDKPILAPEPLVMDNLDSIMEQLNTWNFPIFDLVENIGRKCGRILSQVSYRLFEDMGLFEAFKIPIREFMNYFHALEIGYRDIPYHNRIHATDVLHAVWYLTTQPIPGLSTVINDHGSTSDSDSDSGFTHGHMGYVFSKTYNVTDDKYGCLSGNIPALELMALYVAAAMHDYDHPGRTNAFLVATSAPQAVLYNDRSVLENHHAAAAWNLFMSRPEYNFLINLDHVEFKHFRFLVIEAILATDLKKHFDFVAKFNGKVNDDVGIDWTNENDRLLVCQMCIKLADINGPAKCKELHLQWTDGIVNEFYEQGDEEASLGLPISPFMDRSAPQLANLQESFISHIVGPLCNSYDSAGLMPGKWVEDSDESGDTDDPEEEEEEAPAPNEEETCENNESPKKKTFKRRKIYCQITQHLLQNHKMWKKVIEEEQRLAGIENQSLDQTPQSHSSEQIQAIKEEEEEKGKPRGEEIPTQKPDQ
# Chain of PDE4D (Q08499 whole entry, species assumed): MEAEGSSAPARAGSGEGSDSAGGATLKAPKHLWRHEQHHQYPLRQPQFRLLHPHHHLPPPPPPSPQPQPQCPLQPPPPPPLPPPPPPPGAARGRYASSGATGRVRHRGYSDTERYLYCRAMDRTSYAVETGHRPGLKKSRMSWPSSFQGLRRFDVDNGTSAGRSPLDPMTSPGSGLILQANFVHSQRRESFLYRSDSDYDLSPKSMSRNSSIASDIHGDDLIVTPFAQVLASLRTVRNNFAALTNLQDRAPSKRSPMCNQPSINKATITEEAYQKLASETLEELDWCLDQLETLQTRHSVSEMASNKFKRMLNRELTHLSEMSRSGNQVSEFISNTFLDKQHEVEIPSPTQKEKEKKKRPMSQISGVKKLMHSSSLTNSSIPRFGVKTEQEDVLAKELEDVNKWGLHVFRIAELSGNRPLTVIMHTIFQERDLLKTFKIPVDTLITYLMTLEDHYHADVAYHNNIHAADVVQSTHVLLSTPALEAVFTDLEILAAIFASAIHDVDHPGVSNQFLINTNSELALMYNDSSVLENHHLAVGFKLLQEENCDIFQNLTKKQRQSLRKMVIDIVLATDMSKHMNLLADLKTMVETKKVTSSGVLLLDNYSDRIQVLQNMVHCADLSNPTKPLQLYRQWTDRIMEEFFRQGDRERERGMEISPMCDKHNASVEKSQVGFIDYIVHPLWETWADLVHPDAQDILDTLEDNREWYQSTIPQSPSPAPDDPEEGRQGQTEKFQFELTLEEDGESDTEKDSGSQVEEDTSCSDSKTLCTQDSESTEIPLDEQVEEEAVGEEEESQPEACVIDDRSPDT
SMILES,"IC50 [2, 6]",ED50 ([1]; read-out: APO ED50),ED50 [3],ED50 [4],ED50 (PDE10),also measured
c1cn2c(-c3cnn(CC4CC4)c3)cnc2c(N2CCOCC2)n1 [compound 119],324 nM,,,,,"ED50 ([1]; not active at 2.5 or at 10 mg/kg, not further tested, read-out: APO ED50 (not active at threshold dose)): > 2.5 mg/kg; Selectivity PDE2A (PDE2A; in vitro selectivity towards PDE10A versus PDE2A): ≧10 fold, except compound 119 (>3.02 fold selectivity)"
Cc1nc2c(N3CCOCC3)nccn2c1-c1cnn(CC(C)C)c1 [compound 97],,2 mg/kg,5.4 mg/kg,12.3 mg/kg,,
COC(C)(C)Cn1cc(-c2c(C)nc3c(N4CCOCC4)nccn23)cn1 [compound 72],95.5 nM,1.2 mg/kg,2 mg/kg,,6.4 mg/kg,
"COCCc1ncc(-c2c(C)nc3c(N4CCOCC4)nccn23)cn1 [compound 33, 3-[2-(2-Methoxy-ethyl)-pyrimidin-5-yl]-2-methyl-8-morpholin-4-yl-imidazo[1,2-a]pyrazine]",148 nM,0.8 mg/kg,,,,"IC50 (PDE11A): > 10000 nM; IC50 (PDE1B): 2950 nM; IC50 (PDE4D): > 10000 nM; IC50 (PDE2A; Table 4a in vitro selectivity, read-out: IC50 PDE type 2A): > 10000 nM; IC50 ([2]; Table 4a in vitro selectivity, read-out: IC50 PDE type 10A): 500 nM; IC50 (PDE5A): > 10000 nM; IC50 (PDE9A; Table 4a in vitro selectivity, read-out: IC50 PDE type 9A): > 10000 nM; IC50 (PDE3A): > 10000 nM; IC50 (PDE7A): > 10000 nM"
"COc1cc2ncnc(N3CC[C@@H](Oc4cnc5ccccc5n4)C3)c2cc1OC [PQ10, 6,7-dimethoxy-4-[3(R)-(quinoxalin-2-yloxy)pyrrolidin-1-yl]quinazoline]",,,,,,"index of discrimination (d2), mean ([5]; 1 mg/kg p.o. + Scop. 0.1 mg/kg, 1 h delay): 0.27; discrimination compared to the vehicle/scopolamine condition (post-hoc analysis) ([5]; 1 mg/kg p.o. + scopolamine): significantly better discrimination"
CO[C@@H](C)Cn1cc(-c2c(C)nc3c(N4CCOCC4)nccn23)cn1 [compound 57],,1.2 mg/kg,,5 mg/kg,8 mg/kg,PDE10A2 pIC50 ([2]; pIC50 corresponds to the -log IC50 expressed in mol/L): 7.22
COC(C)(C)Cn1cc(-c2c(C)nc3c(-c4ccncc4)nccn23)cn1 [compound 78],105 nM,1.2 mg/kg,,,,"% Occ. at 10 mg/kg (PDE10): 76%; Selectivity PDE9 (PDE9A; in vitro selectivity towards PDE10A versus PDE9): >10-100 fold, except 78 (<10 fold selectivity)"
"COCCc1ccc(-c2c(C)nc3c(N4CCOCC4)nccn23)cn1 [compound 16, 3-[6-(2-Methoxy-ethyl)-pyridin-3-yl]-2-methyl-8-morpholin-4-yl-imidazo[1,2-a]pyrazine]",,1 mg/kg,1.54 mg/kg,2 mg/kg,,
Cc1nc2c(-c3ccncc3)nccn2c1-c1cnn(CC(C)C)c1 [compound 69],89.1 nM,5 mg/kg,2 mg/kg,,,% Occ. at 10 mg/kg (PDE10): 67%
Cc1nc2c(N3CCOCC3)nccn2c1-c1cnn(CC2CC2(F)F)c1 (stereo not drawn) [compound 52],52.5 nM,3.1 mg/kg,≤ 10 mg/kg,,5.5 mg/kg,
